This is an account of results in patent US12559529B2, “NPY2 receptor agonists” (Boehringer Ingelheim International GmbH, priority 2019, dated 2026).

pKi: −log10 of the molar value.

One assay deals with normal NMRI mice. Briefly: Effect on acute food intake in normal NMRI mice. The format is in vivo. Particulars: male NMRI mice, 10 nmol/kg subcutaneously once. The gist of the method: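 Male NMRI mice acclimatized in an HM-2 real-time food intake monitoring system, fasted 6 h before dark phase. Single subcutaneous dose of 10 nmol/kg peptide given 1 h before dark; n=7-8. Food intake expressed as % of vehicle group (50 mM phosphate pH7, 5% Mannitol).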

The target in assay [1] is T1, Human Neuropeptide Y2 Receptor (Homo sapiens, UniProt P49146).
T1 construct: purchased CHEMICON HTS066M
T1 sequence (P49146 1-381): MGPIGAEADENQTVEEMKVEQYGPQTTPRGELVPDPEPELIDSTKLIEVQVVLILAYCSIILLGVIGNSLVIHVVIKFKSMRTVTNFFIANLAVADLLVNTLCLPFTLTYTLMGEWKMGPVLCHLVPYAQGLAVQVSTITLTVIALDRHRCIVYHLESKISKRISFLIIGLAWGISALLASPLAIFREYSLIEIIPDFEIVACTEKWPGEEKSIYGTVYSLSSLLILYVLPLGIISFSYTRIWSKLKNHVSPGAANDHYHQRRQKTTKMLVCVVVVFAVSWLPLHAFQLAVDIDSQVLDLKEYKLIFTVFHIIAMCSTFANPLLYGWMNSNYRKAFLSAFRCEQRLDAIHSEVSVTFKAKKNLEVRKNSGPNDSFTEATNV
The assay is described as follows: Radioligand binding competition assay (RLB). The settings on record: Table 3; human 125I-PYY (1-36) 0.02 nM, Y2 receptor membranes; read-out: Ki. The gist of the method: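 IC50 values come from nonlinear regression of sigmoidal dose-response curves of filter-bound radioactivity. Peptides competed with radioligand at human Y2 receptor membranes (0.5 μg protein/well) for 2 h at room temperature in pH 7.4 HEPES buffer containing Mg2+, Ca2+ and 0.2% ovalbumin.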

Regarding `CC(C)CC(=O)N[C@@H](C)C(=O)N1CCC[C@H]1C(=O)N[C@@H](C)C(=O)N[C@@H](CCCCNC(=O)COCCOCCNC(=O)COCCOCCNC(=O)CC[C@H](NC(=O)CCCCCCCCCCCCCCCCC(=O)O)C(=O)O)C(=O)N1CCC[C@H]1C(=O)N[C@@H](CCC(=O)O)C(=O)N[C@@H](CCC(=O)O)C(=O)N[C@@H](CC(=O)O)C(=O)N[C@@H](C)C(=O)N[C@@H](CCC(=O)O)C(=O)N1CCC[C@H]1C(=O)N[C@@H](CCC(=O)O)C(=O)N[C@@H](CCC(=O)O)C(=O)N[C@@H](CC(C)C)C(=O)N[C@@H](CCC(N)=O)C(=O)N[C@@H](CCCNC(=N)N)C(=O)N[C@@H](Cc1ccc(O)cc1)C(=O)N[C@@H](Cc1ccc(O)cc1)C(=O)N[C@H](C(=O)N[C@@H](CO)C(=O)N[C@@H](CC(C)C)C(=O)N[C@@H](CCCNC(=N)N)C(=O)N[C@@H](Cc1c[nH]cn1)C(=O)N[C@@H](Cc1ccc(O)cc1)C(=O)N[C@@H](Cc1ccc(O)cc1)C(=O)N[C@@H](CC(N)=O)C(=O)N[C@@H](Cc1c[nH]c2ccccc12)C(=O)N[C@@H](CC(C)C)C(=O)N[C@H](C(=O)N[C@@H](CCCNC(=N)N)C(=O)N[C@@H](CCC(N)=O)C(=O)N[C@@H](CCCNC(=N)N)C(=O)N[C@@H](Cc1ccc(O)cc1)C(N)=O)[C@@H](C)O)C(C)C` [Compound 174, N{alpha-4}-(3-methylbutanoyl)-N{epsilon-7}-[2-(2-{2-[2-(2-{2-[(4S)-4-carboxy-4-(17-carboxyheptadecanamido)butanamido]ethoxy}ethoxy)acetamido]ethoxy}ethoxy)acetamido]-[4A,6A,7K,9E,13E,18Q,22V,28Y,30W,31L]hPYY (4-36)], the “Acute Food Intake 24 h [% vehicle]” value in the assay on normal NMRI mice was found to be 41 % vehicle. For the same compound, the pKi in assay [1] was 8.41.
For `CC(C)CC(=O)N[C@@H](C)C(=O)N1CCC[C@H]1C(=O)N[C@@H](CCC(=O)O)C(=O)N[C@@H](CCCCNC(=O)COCCOCCNC(=O)COCCOCCNC(=O)CC[C@H](NC(=O)CCCCCCCCCCCCCCCCC(=O)O)C(=O)O)C(=O)N1CCC[C@H]1C(=O)N[C@@H](CCC(=O)O)C(=O)N[C@@H](CCC(=O)O)C(=O)N[C@@H](CC(=O)O)C(=O)N[C@@H](C)C(=O)N[C@@H](CO)C(=O)N[C@@H](CCC(=O)O)C(=O)N[C@@H](CCC(=O)O)C(=O)N[C@@H](CCC(=O)O)C(=O)N[C@@H](CC(C)C)C(=O)N[C@@H](CCC(N)=O)C(=O)N[C@@H](CCCNC(=N)N)C(=O)N[C@@H](Cc1ccc(O)cc1)C(=O)N[C@@H](Cc1ccc(O)cc1)C(=O)N[C@H](C(=O)N[C@@H](CO)C(=O)N[C@@H](CC(C)C)C(=O)N[C@@H](CCCNC(=N)N)C(=O)N[C@@H](Cc1c[nH]cn1)C(=O)N[C@@H](Cc1ccc(O)cc1)C(=O)N[C@@H](Cc1ccc(O)cc1)C(=O)N[C@@H](CC(N)=O)C(=O)N[C@@H](Cc1c[nH]c2ccccc12)C(=O)N[C@@H](CC(C)C)C(=O)N[C@H](C(=O)N[C@@H](CCCNC(=N)N)C(=O)N[C@@H](CCC(N)=O)C(=O)N[C@@H](CCCNC(=N)N)C(=O)N[C@@H](Cc1ccc(O)cc1)C(N)=O)[C@@H](C)O)C(C)C` [Compound 176, N{alpha-4}-(3-methylbutanoyl)-N{epsilon-7}-[2-(2-{2-[2-(2-{2-[(4S)-4-carboxy-4-(17-carboxyheptadecanamido)butanamido]ethoxy}ethoxy)acetamido]ethoxy}ethoxy)acetamido]-[4A,7K,9E,14E,18Q,22V,28Y,30W,31L]hPYY (4-36)], in that order: 52 % vehicle and 8.52.
On to `CC(C)CC(=O)N[C@@H](C)C(=O)N1CCC[C@H]1C(=O)N[C@@H](CCC(=O)O)C(=O)N[C@@H](CCCCNC(=O)COCCOCCNC(=O)COCCOCCNC(=O)CC[C@H](NC(=O)CCCCCCCCCCCCCCCCC(=O)O)C(=O)O)C(=O)N1CCC[C@H]1C(=O)N[C@@H](CCC(=O)O)C(=O)N[C@@H](CCC(=O)O)C(=O)N[C@@H](CC(=O)O)C(=O)N[C@@H](C)C(=O)N[C@@H](CO)C(=O)N1CCC[C@H]1C(=O)N[C@@H](CCC(=O)O)C(=O)N[C@@H](CCC(=O)O)C(=O)N[C@H](C(=O)N[C@@H](CCC(N)=O)C(=O)N[C@@H](CCC(N)=O)C(=O)N[C@@H](Cc1ccc(O)cc1)C(=O)N[C@@H](Cc1ccc(O)cc1)C(=O)N[C@H](C(=O)N[C@@H](CO)C(=O)N[C@@H](CC(C)C)C(=O)N[C@@H](CCCNC(=N)N)C(=O)N[C@@H](Cc1c[nH]cn1)C(=O)N[C@@H](Cc1ccc(O)cc1)C(=O)N[C@@H](Cc1ccc(O)cc1)C(=O)N[C@@H](CC(N)=O)C(=O)N[C@@H](Cc1c[nH]c2ccccc12)C(=O)N[C@@H](CC(C)C)C(=O)N[C@H](C(=O)N[C@@H](CCCNC(=N)N)C(=O)N[C@@H](CCC(N)=O)C(=O)N[C@@H](CCCNC(=N)N)C(=O)N[C@@H](Cc1ccc(O)cc1)C(N)=O)[C@@H](C)O)C(C)C)[C@@H](C)O` [Compound 180, N{alpha-4}-(3-methylbutanoyl)-N{epsilon-7}-[2-(2-{2-[2-(2-{2-[(4S)-4-carboxy-4-(17-carboxyheptadecanamido)butanamido]ethoxy}ethoxy)acetamido]ethoxy}ethoxy)acetamido]-[4A,7K,9E,17T,18Q,19Q,22V,28Y,30W,31L]hPYY (4-36)], for which the “Acute Food Intake 24 h [% vehicle]” value in the assay on normal NMRI mice came to 74 % vehicle. For the same compound, in assay [1], the negative logarithm of the Ki (pKi) was 8.41.
For `CC(C)CC(=O)N[C@@H](C)C(=O)N1CCC[C@H]1C(=O)N[C@@H](CCC(=O)O)C(=O)N[C@@H](CCCCNC(=O)COCCOCCNC(=O)COCCOCCNC(=O)CC[C@H](NC(=O)CCCCCCCCCCCCCCCCC(=O)O)C(=O)O)C(=O)N1CCC[C@H]1C(=O)N[C@@H](CCC(=O)O)C(=O)N[C@@H](CCC(=O)O)C(=O)N[C@@H](CCC(=O)O)C(=O)N[C@@H](C)C(=O)N[C@@H](CO)C(=O)N1CCC[C@H]1C(=O)N[C@@H](CCC(=O)O)C(=O)N[C@@H](CCC(=O)O)C(=O)N[C@@H](CC(C)C)C(=O)N[C@@H](CCC(N)=O)C(=O)N[C@@H](CCCNC(=N)N)C(=O)N[C@@H](Cc1ccc(O)cc1)C(=O)N[C@@H](Cc1ccc(O)cc1)C(=O)N[C@H](C(=O)N[C@@H](CCC(=O)O)C(=O)N[C@@H](CC(C)C)C(=O)N[C@@H](CCCNC(=N)N)C(=O)N[C@@H](Cc1c[nH]cn1)C(=O)N[C@@H](Cc1ccc(O)cc1)C(=O)N[C@@H](Cc1ccc(O)cc1)C(=O)N[C@@H](CC(N)=O)C(=O)N[C@@H](Cc1c[nH]c2ccccc12)C(=O)N[C@@H](CC(C)C)C(=O)N[C@H](C(=O)N[C@@H](CCCNC(=N)N)C(=O)N[C@@H](CCC(N)=O)C(=O)N[C@@H](CCCNC(=N)N)C(=O)N[C@@H](Cc1ccc(O)cc1)C(N)=O)[C@@H](C)O)C(C)C` [Compound 185, N{alpha-4}-(3-methylbutanoyl)-N{epsilon-7}-[2-(2-{2-[2-(2-{2-[(4S)-4-carboxy-4-(17-carboxyheptadecanamido)butanamido]ethoxy}ethoxy)acetamido]ethoxy}ethoxy)acetamido]-[4A,7K,9E,11E,18Q,22V,23E,28Y,30W,31L]hPYY (4-36)], the “Acute Food Intake 24 h [% vehicle]” value in the assay with normal NMRI mice is listed as 39 % vehicle. For the same compound, the pKi in assay [1] is 8.45.
For `CC[C@H](C)[C@H](NC(=O)[C@H](CCC(=O)O)NC(=O)[C@H](CCC(=O)O)NC(=O)[C@H](CCC(=O)O)NC(=O)[C@H](CO)NC(=O)[C@H](C)NC(=O)[C@H](CC(=O)O)NC(=O)[C@H](CCC(=O)O)NC(=O)[C@H](CCC(=O)O)NC(=O)[C@@H]1CCCN1C(=O)[C@H](CCCCNC(=O)COCCOCCNC(=O)COCCOCCNC(=O)CC[C@H](NC(=O)CCCCCCCCCCCCCCCCC(=O)O)C(=O)O)NC(=O)[C@H](CCC(=O)O)NC(=O)[C@@H]1CCCN1C(=O)[C@H](C)NC(=O)CC(C)C)C(=O)N[C@@H](CCC(N)=O)C(=O)N[C@@H](CCCNC(=N)N)C(=O)N[C@@H](Cc1ccc(O)cc1)C(=O)N[C@@H](Cc1ccc(O)cc1)C(=O)N[C@H](C(=O)N[C@@H](CO)C(=O)N[C@@H](CC(C)C)C(=O)N[C@@H](CCCNC(=N)N)C(=O)N[C@@H](Cc1c[nH]cn1)C(=O)N[C@@H](Cc1ccc(O)cc1)C(=O)N[C@@H](Cc1ccc(O)cc1)C(=O)N[C@@H](CC(N)=O)C(=O)N[C@@H](Cc1c[nH]c2ccccc12)C(=O)N[C@@H](CC(C)C)C(=O)N[C@H](C(=O)N[C@@H](CCCNC(=N)N)C(=O)N[C@@H](CCC(N)=O)C(=O)N[C@@H](CCCNC(=N)N)C(=O)N[C@@H](Cc1ccc(O)cc1)C(N)=O)[C@@H](C)O)C(C)C` [Compound 193, N{alpha-4}-(3-methylbutanoyl)-N{epsilon-7}-[2-(2-{2-[2-(2-{2-[(4S)-4-carboxy-4-(17-carboxyheptadecanamido)butanamido]ethoxy}ethoxy)acetamido]ethoxy}ethoxy)acetamido]-[4A,7K,9E,14E,17I,18Q,22V,28Y,30W,31L]hPYY (4-36)], in that order: 57 % vehicle and 8.42.

The term pKi denotes the Ki on a negative log10 scale, so that one unit is a factor of ten.
